Where no end group is shown, it is not given here.

The test system of one test is MRSA CCARM 3108. The class given is cell-based, Methicillin-resistant S. aureus. The conditions noted are these: MRSA CCARM 3108; broth microdilution, 37°C, 16 h; three independent experiments in triplicate, SD 14.0%.
Another test concerns S. aureus KCTC3881. The class given is cell-based, Staphylococcus aureus. The conditions noted are these: S. aureus KCTC3881; broth microdilution, 37°C, 16 h; three independent experiments in triplicate, SD 14.0%. (In broth dilution the organism is exposed to a series of concentrations in liquid medium.)
Test [1] deals with Drug-resistant bacterial strains. As to conditions: average over the 18 drug-resistant bacterial strains of Table 3. Put shortly:
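Broth microdilution: mid-log bacteria grown in LB, 2×10^6 CFU/mL, mixed 1:1 with two-fold peptide dilutions in 1% peptone, 16 h at 37°C. Strains include KCTC reference isolates and CCARM MRSA and multidrug-resistant E. coli, S. typhimurium, A. baumanii, P. aeruginosa; MIC averaged from triplicates over three independent assays.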

Another test relates to MDRAB CCARM 12037. The class given is cell-based, multidrug-resistant Acinetobacter baumanii. As to conditions: broth microdilution, 37°C, 16 h, three independent experiments in triplicate, SD 14.0%.
The test system of the next test is E.coli KCTC2571. The class given is cell-based, Escherichia coli. The conditions noted are these: E.coli KCTC2571; broth microdilution, 37°C, 16 h; three independent experiments in triplicate, SD 14.0%.
In another test the test system is MDRPA CCARM 2095. The class given is cell-based, multidrug-resistant P. aeruginosa. The conditions noted are these: broth microdilution, 37°C, 16 h, three independent experiments in triplicate, SD 14.0%.
Another test relates to MDRST CCARM 8007. The class given is cell-based, multidrug-resistant S. typhimurium. As to conditions: broth microdilution, 37°C, 16 h, three independent experiments in triplicate, SD 14.0%.
A further test deals with E. coli KCTC2593. The class given is cell-based, Escherichia coli. As to conditions: E. coli KCTC2593; broth microdilution, 37°C, 16 h; three independent experiments in triplicate, SD 14.0%.
A further test has as its system E. coli KCTC1682. The class given is cell-based, Escherichia coli. As to conditions: E. coli KCTC1682; broth microdilution, 37°C, 16 h; three independent experiments in triplicate, SD 14.0%.
The subject of the next test is MDRAB CCARM 12035. The class given is cell-based, multidrug-resistant Acinetobacter baumanii. The conditions noted are these: broth microdilution, 37°C, 16 h, three independent experiments in triplicate, SD 14.0%.
Another test concerns S. epidermidis KCTC1917. The class given is cell-based, Staphylococcus epidermidis. As to conditions: S. epidermidis KCTC1917; broth microdilution, 37°C, 16 h; three independent experiments in triplicate, SD 14.0%.
Another test deals with MDRST CCARM 8003. The class given is cell-based, multidrug-resistant S. typhimurium. As to conditions: broth microdilution, 37°C, 16 h, three independent experiments in triplicate, SD 14.0%.
A further test deals with MRSA CCARM 3114. The class given is cell-based, Methicillin-resistant S. aureus. As to conditions: MRSA CCARM 3114; broth microdilution, 37°C, 16 h; three independent experiments in triplicate, SD 14.0%.
The next test deals with MDRST CCARM 8009. The class given is cell-based, multidrug-resistant S. typhimurium. As to conditions: broth microdilution, 37°C, 16 h, three independent experiments in triplicate, SD 14.0%.
The next test deals with MRSA CCARM 3090. The class given is cell-based, Methicillin-resistant S. aureus. As to conditions: MRSA CCARM 3090; broth microdilution, 37°C, 16 h; three independent experiments in triplicate, SD 14.0%.
For the next test, the system named is MDREC CCARM 1229. The class given is cell-based, multidrug-resistant E. coli. As to conditions: broth microdilution, 37°C, 16 h, three independent experiments in triplicate, SD 14.0%.
Another test relates to MDRAB CCARM 12005. The class given is cell-based, multidrug-resistant Acinetobacter baumanii. As to conditions: broth microdilution, 37°C, 16 h, three independent experiments in triplicate, SD 14.0%.
For the next test, the system named is S. typhimurium KCTC1926. The class given is cell-based, Salmonella typhimurium. As to conditions: S. typhimurium KCTC1926; broth microdilution, 37°C, 16 h; three independent experiments in triplicate, SD 14.0%.
The next test concerns S. aureus KCTC1621. The class given is cell-based, Staphylococcus aureus. The conditions noted are these: S. aureus KCTC1621; broth microdilution, 37°C, 16 h; three independent experiments in triplicate, SD 14.0%.
In the next test the test system is P. aeruginosa KCTC2004. The class given is cell-based, Pseudomonas aeruginosa. As to conditions: P. aeruginosa KCTC2004; broth microdilution, 37°C, 16 h; three independent experiments in triplicate, SD 14.0%.
The subject of a further test is S. aureus KCTC1916. The class given is cell-based, Staphylococcus aureus. The conditions noted are these: S. aureus KCTC1916; broth microdilution, 37°C, 16 h; three independent experiments in triplicate, SD 14.0%.

Method for E. coli KCTC1682: (§1) The antimicrobial activities of the peptides against selected organisms, including three Gram-positive, three Gram-negative, and five antibiotic-resistant bacteria, were determined using a broth microdilution assay. Briefly, single colonies of bacteria and fungi were inoculated into Luria-Bertani (LB) medium and cultured overnight at 37°C. An aliquot of the culture was transferred to 10 mL of fresh LB and incubated for an additional 3–5 h at 37°C until it reached the mid-logarithmic phase. Two-fold serial dilutions of the peptides in 1% peptone were prepared. The serial dilutions (100 µL) were added to 100 µL of cells (2×10^6 colony-forming units (CFU)/mL) in 96-well microtiter plates and incubated at 37°C for 16 h. […] MIC values were calculated as the average of triplicate measurements from three independent assays.
From the text for E. coli KCTC2593: (§2) Escherichia coli KCTC 1682, E. coli KCTC 2593, E. coli KCTC 2571, Salmonella typhimurium KCTC 1926, Pseudomonas aeruginosa KCTC 1637, P. aeruginosa KCTC 2004, P. aeruginosa KCTC 2513, Bacillus subtilis KCTC 3068, B. subtilis KCTC 1021, B. subtilis KCTC 1022, Staphylococcus epidermidis KCTC 1917, Staphylococcus aureus KCTC 1621, S. aureus KCTC 1916, and S. aureus KCTC 3881 were purchased from the Korean Collection for Type Cultures, Korea Research Institute of Bioscience & Biotechnology (Taejon, Korea). Methicillin-resistant S. aureus (MRSA) (CCARM 3089, CCARM 3090, CCARM 3108, CCARM 3114, and CCARM 3126), multidrug-resistant E. coli (MDREC) (CCARM 1229 and CCARM 1238), multidrug-resistant S. typhimurium (MDRST) (CCARM 8003, CCARM 8007, and CCARM 8009), multidrug-resistant Acinetobacter baumanii (MDRAB) (CCARM 12005, CCARM 12035, CCARM 12036, CCARM 12037), and multidrug-resistant P. aeruginosa (MDRPA) (CCARM 2002, CCARM 2003, CCARM 2095, and CCARM 2163) were obtained from the Culture Collection of Antibiotic-Resistant Microbes (CCARM) at Seoul Women’s University in Korea. The antimicrobial activities of the peptides against selected organisms, including three Gram-positive, three Gram-negative, and five antibiotic-resistant bacteria, were determined using a broth microdilution assay. Briefly, single colonies of bacteria and fungi were inoculated into Luria-Bertani (LB) medium and cultured overnight at 37°C. An aliquot of the culture was transferred to 10 mL of fresh LB and incubated for an additional 3–5 h at 37°C until it reached the mid-logarithmic phase. Two-fold serial dilutions of the peptides in 1% peptone were prepared. The serial dilutions (100 µL) were added to 100 µL of cells (2×10^6 colony-forming units (CFU)/mL) in 96-well microtiter plates and incubated at 37°C for 16 h. […] MIC values were calculated as the average of triplicate measurements from three independent assays.
Method for E.coli KCTC2571: as §1
Method for MDRAB CCARM 12005: as §1
From the text for MDRST CCARM 8007: as §2
From the text for MDRST CCARM 8009: as §2
From the text for MRSA CCARM 3090: as §2
From the text for MRSA CCARM 3108: as §2
From the text for MRSA CCARM 3114: as §2
Method for S. aureus KCTC1621: as §1
Method for S. aureus KCTC1916: as §1
From the text for S. aureus KCTC3881: as §2
Method for S. typhimurium KCTC1926: as §1

Broadly, the MIC is the lowest concentration found to suppress growth. Higher therefore signals a need for much substance. For the sequence “FFHHIFRGIVHVGKTIHRLVTG [Pis-1, reference compound]”, the minimum inhibitory concentration (MIC) in the test on MRSA CCARM 3108 came to 4.0 µM; in the test on S. aureus KCTC3881 it was 2.0 µM; with MDRAB CCARM 12037, 2.0 µM; with E.coli KCTC2571, 1.0 µM; in the test on MDRPA CCARM 2095, 2.0 µM; in the test with MDRST CCARM 8007 it was 4.0 µM. The MIC against E. coli KCTC2593 came to 1.0 µM; against E. coli KCTC1682, 1.0 µM; in the test with MDRAB CCARM 12035, 2.0 µM; against S. epidermidis KCTC1917 it was 2.0 µM; in the test on MDRST CCARM 8003, 4.0 µM; against MRSA CCARM 3114 it was 4.0 µM. In addition, the MIC against MDRST CCARM 8009 came to 4.0 µM; against MRSA CCARM 3090, 8.0 µM; against MDREC CCARM 1229, 4.0 µM; against MDRAB CCARM 12005, 2.0 µM; in the test with S. typhimurium KCTC1926 it was 2.0 µM; against S. aureus KCTC1621 it was 1.0 µM. Besides, the MIC against P. aeruginosa KCTC2004 came to 2.0 µM; in the test with S. aureus KCTC1916, 1.0 µM. The “Average MIC” value in [1] is 3.6 µM.

Values taken from PMC4256409, “Role of Phenylalanine and Valine^10 Residues in the Antimicrobial Activity and Cytotoxicity of Piscidin-1” (PLoS ONE, 2014).
